Experiments:
[1] = tested on: Staphylococcus aureus (ATCC#14154); assay: Micro-broth dilution susceptibility testing (MIC/MBC); assay type: cell-based; details: for effect against Staphylococcus aureus (in words): ATCC#14154, grown in broth over 48 hours
Experimental: (§1) A micro-broth dilution technique was used to determine the susceptibility of the strains of Staphylococcus aureus. Susceptibility was expressed as minimum inhibitory (MIC) and/or minimum bactericidal (MBC) concentration.
(§2) Various essential oils, carvacrol, and monolaurin were tested alone or in combination for the treatment of Staphylococcus aureus infection. Twelve essential oils were tested in the study: oregano oil, olive oil (the diluent), pumpkin oil, fenugreek oil, myrtle oil, allspice oil, sage oil, lavender oil, bay leaf oil, cumin oil, cinnamon oil, and cassia oil.
(§3) The stock solutions of oregano oil, other essential oils, olive oil, and carvacrol were dissolved in 50% ethanol-Tween 80 solvents. Antibiotics were dissolved in 50% ethanol and used as positive controls. Solvent controls (addition of carrier without essential oil and monolaurin) were also included for reference in addition to regular controls.
(§4) The Sabouraud's glucose (S.g.) broth containing varying amounts (logarithmic, serially and 2-fold diluted) of oregano oil, other essential oils, carvacrol, monolaurin and various controls were inoculated with actively dividing Staphylococcus aureus cells. The cultures were incubated for about 24 hours and about 48 hours at a temperature of about 30° C. on a metabolic rotary shaker (220 rev/min), and the growth was monitored both visually and colorimetrically (at a wavelength of about […]). The minimum inhibitory concentration (MIC) was defined as the lowest concentration required to arrest the growth of the bacteria at the end of 24 hour of incubation. Minimum bactericidal concentration (MBC) was determined by sub-culturing a 0.01 ml aliquot of the medium drawn from the culture tubes after 48 hours on S.g. agar plates and incubated further for bacterial growth. The plates were scored for growth of the bacteria colonies. The lowest concentration of the antimicrobial agent causing negative growth (fewer than three colonies) was considered as MBC. In every case, the MIC and MBC were virtually the same.
A micro dilution study on Staphylococcus aureus (ATCC#14154) grown in broth over 48 hours was performed to determine the comparative effects of various antibiotics and essential oils against Staphylococcus aureus infection at the selected concentrations.

[2] = tested on: Staphylococcus aureus (ATCC#14775); assay: as above; assay type: cell-based; details: for killing of Staphylococcus aureus in vitro (summary): summary statement
Experimental: as §1, §2, §3, §4
The micro dilution study was performed with another strain of Staphylococcus aureus (ATCC#14775). Although the results from the two strains (ATCC#14775 and ATCC#14154) were generally similar, there were some minor differences. […] Oregano oil provided efficacy against the ATCC#14775 strain infections at the concentration as low as 0.25 mg oregano oil. Carvacrol provided efficacy against the ATCC#14775 strain infections at a phenol content equivalent to that in 0.5 mg oregano oil.
The in vitro experiment on Staphylococcus aureus (ATCC#14775) was performed to investigate the efficacy of using monolaurin alone, using monolaurin in combination with oregano oil, or using oregano oil alone.

[3] = tested on: Staphylococcus aureus (ATCC#14775); assay: Murine systemic bacteremia model, 30-day survival; assay type: in vivo, mice; details: for in vivo effect on survival (in words): mice infected with 5xLD50, daily gavage 30 days; for mice surviving for 30 days (survivors/group): second study, groups of eight, 3.2 mg of each agent by gavage, vancomycin 400 μg i.p.; for mice surviving thirty days (survivors/total): summary across the in vivo studies
Experimental: Female BALB/c mice (about 15 grams to 20 grams in weight) were obtained from Taconic Farms (Germantown, N.Y.). The mice were maintained in a controlled environment at about 24° C. with a 12-hour light and 12-hour dark cycle and were acclimatized in the animal facility for about 3-5 days before testing. The mice were housed in groups of five, fed commercial rodent pellets, and given water ad libitum throughout the experiments. The Animal Welfare Board at Georgetown University Medical Center approved the protocol for the entire investigation.
In two separate experiments, groups of mice (6 and 8 respectively) infected with Staphylococcus aureus (5×LD50) were gavaged daily with oregano oil, carvacrol, monolaurin or combined oregano oil-monolaurin in 0.2 ml of olive oil for 30 days. The amount of bacterial agents administered was calculated based on the body weight of the mice. Control mice received daily gavages of either olive oil alone (negative control) or olive oil orally plus vancomycin (400 mcg) i.p. (positive control).
In the first in vivo experiment, the daily dose of oregano oil was either 2.0 μl (1.6 mg) or 4.0 μl (3.2 mg). […] In the second in vivo study, the daily dose of oregano oil was the same as the higher dose used before, i.e., 4.0 μl (3.2 mg). Monolaurin was given at the same dose; and when both agents were combined, the same individual doses were used, i.e., 3.2 mg of each. Both experiments were terminated at the end of 30 days. The body weight, the disease status, and the overall health of the mice during the experiments were recorded. The pathological status of the mice was determined by visual examination of the internal organs after their death or sacrifice at the completion of the experiment. Culturing aliquots of kidney homogenates on S.g. agar plates were tested for the renal burden of Staphylococcus aureus.
Furthermore, the in vivo therapeutic effects of the natural edible oregano oil and one of its major constituents, carvacrol, were examined in a murine systemic bacteremia model. […] Groups of six mice infected with Staphylococcus aureus (ATCC#14775) (5×LD50) were gavaged with varying amounts of oregano oil (2.0 μl 1.6 mg; and 4.0 μl 3.2 mg) or injected i.p. with vancomycin (400 μg) daily for 30 days. […] Fifty percent of the mice (3/6) receiving oregano oil (3.2 mg) survived over the thirty days, while only one of six receiving 1.6 mg oregano oil survived for 30 days. Also, 50% of those receiving vancomycin (400 μg) survived for 30 days, while all in the control group died within a three-day period. […] In contrast, numerous abscesses were noted and renal cultures were positive in all dying mice.
In a separate in vivo study, the effects of using monolaurin, either alone and in combination with oregano oil, were investigated and compared to the effects of oregano oil alone. Groups of eight mice were infected with five times the LD50 (5×LD50) of Staphylococcus aureus (A TIC #14775). Fifty percent of the mice (4/8) injected daily with vancomycin (400 μg i.p.) survived for the thirty days of study in contrast to the control group where all eight mice died within a week's time. In the three test groups, 3/8 survived for 30 days in the oregano oil group (3.2 mg), 4/8 survived in the monolaurin group (3.2 mg), and 5/8 survived in the group receiving the combination of oregano oil (3.2 mg) and monolaurin (3.2 mg). No abscesses were seen on inspection, and no bacterial growth was found in the kidney tissue of the 30-day survivors.

## Cc1ccc(C(C)C)cc1O [carvacrol]
[1]; ATCC#14154, carvacrol expressed as oregano oil equivalent
  effective concentration, as comparable dose of oregano oil (phenol content): 0.5 mg
[1]; relative to one oregano oil dosage, strain not specified
  phenol content needed for the same efficacy as oregano oil: twice the phenol content
[2]; ATCC#14775, carvacrol expressed as oregano oil equivalent
  effective phenol content, as equivalent amount of oregano oil: 0.5 mg
[2]
  killing of Staphylococcus aureus in vitro (summary): killed Staphylococcus aureus effectively in vitro
[3]; first experiment, twelve mice, two doses equivalent to phenol content in 1.6 mg and 3.2 mg oregano oil
  survival time (none survived beyond): ≤ 21 days
[3]; first in vivo study, carvacrol at phenol-equivalent doses
  renal culture after death: Staphylococcus aureus was grown out of their kidneys
[3]
  in vivo effect on survival (in words): prolonged survival
[3]; listed as Carvacrol
  in vivo effect on survival (in words): delayed death but could not cure the mice

## [H]/N=C(/N)N[C@H]1[C@H](O)[C@@H](O)[C@H](O[C@@H]2O[C@@H](C)[C@](O)(C=O)[C@H]2O[C@@H]2O[C@@H](CO)[C@H](O)[C@@H](O)[C@@H]2NC)[C@@H](N/C(N)=N\[H])[C@@H]1O [Streptomycin, streptomycin]
[1]
  effect against Staphylococcus aureus (in words): did not completely kill the bacteria

## penicillin
[1]
  effect against Staphylococcus aureus (in words): essentially showed no effect

## CCCCCCCCCCCC(=O)OCC(O)CO (stereo not shown) [monolaurin, glycerol monolaurate]
[2]; ATCC#14775, 0.125 mg of each agent
  growth after two days of incubation: A few Staphylococcus aureus (ATCC#14775) colonies grew
[2]
  killing of Staphylococcus aureus in vitro (summary): killed Staphylococcus aureus effectively in vitro
[3]
  in vivo effect on survival (in words): protective effect
  mice surviving for 30 days (survivors/group): 4/8
  mice surviving thirty days (survivors/total): 4/8

## CN[C@H](CC(C)C)C(=O)N[C@H]1C(=O)N[C@@H](CC(N)=O)C(=O)N[C@H]2C(=O)N[C@H]3C(=O)N[C@H](C(=O)N[C@H](C(=O)O)c4cc(O)cc(O)c4-c4cc3ccc4O)[C@H](O)c3ccc(c(Cl)c3)Oc3cc2cc(c3O[C@@H]2O[C@H](CO)[C@@H](O)[C@H](O)[C@H]2O[C@H]2C[C@](C)(N)[C@H](O)[C@H](C)O2)Oc2ccc(cc2Cl)[C@H]1O [vancomycin]
[1]
  effect against Staphylococcus aureus (in words): completely destroyed the bacteria
[3]; first experiment, groups of six, 400 μg i.p. daily
  mice surviving for 30 days: 50%
[3]
  mice surviving for 30 days (survivors/group): 4/8
  mice surviving thirty days (survivors/total): 7/14
